The record followed here is patent US4544512A, “Tridecyloxy- or tetradecyloxy-propane derivatives” (Takeda Chemical Industries, Ltd., priority 1980, dated 1985).

One test deals with Tetrahymena pyriformis W. As to the kind of experiment: Antiprotozoal activity, broth dilution method (MIC). Format: cell-based. The following applies: 28° C., 44-48 hours, read-out: MIC against Tetrahymena pyriformis W. The protocol: Referring to the antiprotozoal activity given in Table 4, the microbial growth inhibiting activity (MIC) of each compound of this invention was assayed by the broth dilution method by incubating Tetrahymena pyriformis W strain as the test organism at 28° C. for 44-48 hours, using a test culture medium comprising 20 g of Tryptose peptine (Difco), 1 g of yeast extract, 2 g of glucose. 1,000 ml of distilled water and 10 ml of 1M phosphate buffer (pH 7.0).

The test system of test [1] is Cryptococcus unigtullatas. In words: Antimycotic activity, paper disk inhibition zone. The format is cell-based. The settings on record: 48 h, concentration of 3 mg/ml, paper disk 8 mm, 37° C., 2 days, read-out: Inhibition zone diameters. The protocol: Referring to the antimycotic activity presented in Table 5, Cryptococcus unigtullatas and others were used as the test microbes, a paper disk (8 mm in diameter) was immersed in an aqueous solution of each test compound having a concentration of 3 mg/ml, air dried and placed on an agar medium, then incubation was conducted at 37° C. for 2 days, and the diameter (mm) of the inhibition zone was measured.

In brackets after ≈: the same amount, converted by molar mass.

On to `CCCCCCCCCCCCOCC(COP(=O)([O-])OCC[N+](C)(C)C)OC` (stereo not drawn) [drawing 23 R = C12 H25], for which the MIC in the test on Tetrahymena pyriformis W worked out at 0.4 µg/mL (≈ 0.91 µM). Still for that read-out and setting: next, `CCCCCCCCCCCCCCOCC(COP(=O)([O-])OCC[N+](C)(C)C)OC` (stereo not drawn) [drawing 23 R = C14 H29]: 0.2 µg/mL (≈ 0.428 µM); `CCCCCCCCCCCCCCCCCCOCC(COP(=O)([O-])OCC[N+](C)(C)C)OC` (stereo not drawn) [drawing 23 R = C18 H37]: 1 µg/mL (≈ 1.91 µM). The same measure, in the same setting: as for `CCCCCCCCCCCCCCOCC(COP(=O)(O)OCCN)OC` (stereo not drawn) [drawing 24 R = C14 H29], the figure is 2 µg/mL (≈ 4.7 µM). Turning to `CCCCCCCCCCCCCCCCCCOCC(COP(=O)(O)OCCN)OC` (stereo not drawn) [drawing 24 R = C18 H37], the MIC in the test on Tetrahymena pyriformis W turned out to be 4 µg/mL (≈ 8.3 µM).

For `CCCCCCCCCCCCOCCCOP(=O)([O-])OCC[N+](C)(C)C` [drawing 25 R = C12 H25], in the test on Tetrahymena pyriformis W, the MIC was 1 µg/mL (≈ 2.44 µM).

For `CCCCCCCCCCCCCOCCCOP(=O)([O-])OCC[N+](C)(C)C` [drawing 25 R = C13 H27], in the test on Tetrahymena pyriformis W, the MIC turned out to be 0.2 µg/mL (≈ 0.472 µM). Regarding `CCCCCCCCCCCCCCOCCCOP(=O)([O-])OCC[N+](C)(C)C` [drawing 25 R = C14 H29], in the test on Tetrahymena pyriformis W, the MIC was 0.2 µg/mL (≈ 0.457 µM). Same read-out and setting: next, `CCCCCCCCCCCCCCCCCCOCCCOP(=O)([O-])OCC[N+](C)(C)C` [drawing 25 R = C18 H37]: 2 to 4 µg/mL (≈ 4.05 to 8.1 µM); `CCCCCCCCCCCCOCCCOP(=O)(O)OCCN` [drawing 26 R = C12 H25]: 2 µg/mL (≈ 5.44 µM). Turning to `CCCCCCCCCCCCCOCCCOP(=O)(O)OCCN` [drawing 26 R = C13 H27], the MIC with Tetrahymena pyriformis W was 0.4 µg/mL (≈ 1.05 µM). As for `CCCCCCCCCCCCCCOCCCOP(=O)(O)OCCN` [drawing 26 R = C14 H29], in the test with Tetrahymena pyriformis W, the MIC is 0.4 µg/mL (≈ 1.01 µM). The same measure, in the same setting: as for `CCCCCCCCCCCCCCCCCCOCCCOP(=O)(O)OCCN` [drawing 26 R = C18 H37], the figure is 4 µg/mL (≈ 8.86 µM). In the case of `CCCCCCCCCCCCOCC(COP(=O)([O-])OCC[N+](C)(C)C)OC` (stereo not drawn) [drawing 27 R = C12 H25], the zone of inhibition at 3000 µg/mL in test [1] came out at 15 mm.

In the case of `CCCCCCCCCCCCCOCC(COP(=O)([O-])OCC[N+](C)(C)C)OC` (stereo not drawn) [drawing 27 R = C13 H27], the zone of inhibition at 3000 µg/mL in test [1] amounted to 19 mm. Same read-out and setting: as for `CCCCCCCCCCCCCCOCC(COP(=O)([O-])OCC[N+](C)(C)C)OC` (stereo not drawn) [drawing 27 R = C14 H29], the figure is 22 mm; as for `CCCCCCCCCCCCCCCCCCOCC(COP(=O)([O-])OCC[N+](C)(C)C)OC` (stereo not drawn) [drawing 27 R = C18 H37], 18 mm; as for `CCCCCCCCCCCCOCC(COP(=O)(O)OCCN)OC` (stereo not drawn) [drawing 28 R = C12 H25], less than 5 mm.

Consider `CCCCCCCCCCCCCCOCC(COP(=O)(O)OCCN)OC` (stereo not drawn) [drawing 28 R = C14 H29], for which the zone of inhibition at 3000 µg/mL in test [1] is 13.5 mm. On the same count and under the same terms, next, `CCCCCCCCCCCCCCCCCCOCC(COP(=O)(O)OCCN)OC` (stereo not drawn) [drawing 28 R = C18 H37]: less than 5 mm. Same read-out and setting: next, `CCCCCCCCCCCCOCCCOP(=O)([O-])OCC[N+](C)(C)C` [drawing 29 R = C12 H25]: 19 mm. Still for that read-out and setting: as for `CCCCCCCCCCCCCOCCCOP(=O)([O-])OCC[N+](C)(C)C` [drawing 29 R = C13 H27], the figure is 20 mm; as for `CCCCCCCCCCCCCCOCCCOP(=O)([O-])OCC[N+](C)(C)C` [drawing 29 R = C14 H29], 21 mm; as for `CCCCCCCCCCCCCCCCCCOCCCOP(=O)([O-])OCC[N+](C)(C)C` [drawing 29 R = C18 H37], 17 mm.
